Source: PMC10196118, “Evidence for broad cross-reactivity of the SARS-CoV-2 NSP12-directed CD4^+ T-cell response with pre-primed responses directed against common cold coronaviruses” (Frontiers in Immunology, 2023)

Tested on: pre-cultured PBMCs (NSP12-specific T cells)
Assay: IFN-γ ELISpot with single 15-mer peptides after 11–13 days in vitro peptide-pool T-cell expansion
Type: cell-based, human
Conditions: for peptide-specific response, donor HH-N12-18, post COVID-19 / peptide-specific response, donor HH-N12-34, post COVID-19 / peptide-specific response, donor HH-N12-35, post COVID-19 / peptide-specific response, donor HH-N12-36, post COVID-19 / peptide-specific response, donor HH-N12-37, post COVID-19 / peptide-specific T-cell response, donor HH-N12-18, post COVID-19 / peptide-specific T-cell response, donor HH-N12-34, post COVID-19 / peptide-specific T-cell response, donor HH-N12-35, post COVID-19 / peptide-specific T-cell response, donor HH-N12-36, post COVID-19 / peptide-specific T-cell response, donor HH-N12-37, post COVID-19: sample post COVID-19; for peptide-specific response, donor HH-N12-18, post COVID-19 / peptide-specific response, donor HH-N12-18, pre COVID-19 / peptide-specific response, donor HH-N12-34, post COVID-19 / peptide-specific response, donor HH-N12-34, pre COVID-19 / peptide-specific response, donor HH-N12-35, post COVID-19 / peptide-specific response, donor HH-N12-35, pre COVID-19 / peptide-specific response, donor HH-N12-36, post COVID-19 / peptide-specific response, donor HH-N12-36, pre COVID-19 / peptide-specific response, donor HH-N12-37, post COVID-19 / peptide-specific response, donor HH-N12-37, pre COVID-19: single NSP12 15-mer peptides; for peptide-specific response, donor HH-N12-18, pre COVID-19 / peptide-specific response, donor HH-N12-34, pre COVID-19 / peptide-specific response, donor HH-N12-35, pre COVID-19 / peptide-specific response, donor HH-N12-36, pre COVID-19 / peptide-specific response, donor HH-N12-37, pre COVID-19 / peptide-specific T-cell response, donor HH-N12-18, pre COVID-19 / peptide-specific T-cell response, donor HH-N12-34, pre COVID-19 / peptide-specific T-cell response, donor HH-N12-35, pre COVID-19 / peptide-specific T-cell response, donor HH-N12-36, pre COVID-19 / peptide-specific T-cell response, donor HH-N12-37, pre COVID-19: sample pre COVID-19; for peptide-specific T-cell response, donor HH-N12-18, post COVID-19 / peptide-specific T-cell response, donor HH-N12-18, pre COVID-19 / peptide-specific T-cell response, donor HH-N12-34, post COVID-19 / peptide-specific T-cell response, donor HH-N12-34, pre COVID-19 / peptide-specific T-cell response, donor HH-N12-35, post COVID-19 / peptide-specific T-cell response, donor HH-N12-35, pre COVID-19 / peptide-specific T-cell response, donor HH-N12-36, post COVID-19 / peptide-specific T-cell response, donor HH-N12-36, pre COVID-19 / peptide-specific T-cell response, donor HH-N12-37, post COVID-19 / peptide-specific T-cell response, donor HH-N12-37, pre COVID-19: single NSP12 15-mer peptide, 0 = no response

Row | Sequence | peptide-specific response, donor HH-N12-18, post COVID-19 | peptide-specific response, donor HH-N12-18, pre COVID-19 | peptide-specific response, donor HH-N12-34, post COVID-19 | peptide-specific response, donor HH-N12-34, pre COVID-19 | peptide-specific response, donor HH-N12-35, post COVID-19 | peptide-specific response, donor HH-N12-35, pre COVID-19 | peptide-specific response, donor HH-N12-36, post COVID-19 | peptide-specific response, donor HH-N12-36, pre COVID-19 | peptide-specific response, donor HH-N12-37, post COVID-19 | peptide-specific response, donor HH-N12-37, pre COVID-19 | peptide-specific T-cell response, donor HH-N12-18, post COVID-19 | peptide-specific T-cell response, donor HH-N12-18, pre COVID-19 | peptide-specific T-cell response, donor HH-N12-34, post COVID-19 | peptide-specific T-cell response, donor HH-N12-34, pre COVID-19 | peptide-specific T-cell response, donor HH-N12-35, post COVID-19 | peptide-specific T-cell response, donor HH-N12-35, pre COVID-19 | peptide-specific T-cell response, donor HH-N12-36, post COVID-19 | peptide-specific T-cell response, donor HH-N12-36, pre COVID-19 | peptide-specific T-cell response, donor HH-N12-37, post COVID-19 | peptide-specific T-cell response, donor HH-N12-37, pre COVID-19
1 | DFIQTTPGSGVPVVD [compound 45] | 0 | 0 | 0 | 0.017 | 0 | 0 | 0 | 0 | 0 | 0 |  |  |  |  |  |  |  |  |  | 
2 | TEERLKLFDRYFKYW [compound 56] | 0 | 0 | 0 | 0 | 0 | 0.04 | 0.022 | 0 | 0 | 0 |  |  |  |  |  |  |  |  |  | 
3 | TFSNYQHEETIYNLL [compound 16] | 0 | 0 | 0 | 0 | 0 | 0 | 0 | 0 | 0 | 0 |  |  |  |  |  |  |  |  |  | 
4 | YFKYWDQTYHPNCVN [compound 58] | 0 | 0 | 0 | 0 | 0 | 0 | 0 | 0.041 | 0 | 0.11 |  |  |  |  |  |  |  |  |  | 
5 | TPGSGVPVVDSYYSL [compound 46] | 0 | 0 | 0 | 0 | 0 | 0 | 0 | 0 | 0 | 0 |  |  |  |  |  |  |  |  |  | 
6 | IYNLLKDCPAVAKHD [compound 18] | 0 | 0 | 0 | 0 | 0 | 0 | 0 | 0 | 0.023 | 0 |  |  |  |  |  |  |  |  |  | 
7 | MILSDDAVVCFNSTY [compound 152] |  |  |  |  |  |  |  |  |  |  | 0 | 0 | 0 | 0 | 0 | 0 | 0 | 0 | 0 | 0
8 | VASIKNFKSVLYYQN [compound 156] |  |  |  |  |  |  |  |  |  |  | 0 | 0 | 0.025 | 0 | 0 | 0 | 0 | 0 | 0 | 0
9 | TSTDVVYRAFDIYND [compound 6] | 0 | 0 | 0 | 0 | 0 | 0 | 0 | 0 | 0 | 0 |  |  |  |  |  |  |  |  |  | 
10 | PNCVNCLDDRCILHC [compound 60] | 0 | 0 | 0 | 0 | 0 | 0 | 0.022 | 0 | 0 | 0 |  |  |  |  |  |  |  |  |  | 
11 | QHEETIYNLLKDCPA [compound 17] | 0 | 0 | 0 | 0 | 0 | 0 | 0 | 0 | 0.021 | 0 |  |  |  |  |  |  |  |  |  | 
12 | IDSYFVVKRHTFSNY [compound 14] | 0 | 0 | 0 | 0 | 0 | 0 | 0 | 0 | 0 | 0 |  |  |  |  |  |  |  |  |  | 
13 | LYRNRDVDTDFVNEF [compound 147] | 0 | 0 | 0 | 0 | 0 | 0 | 0 | 0 | 0 | 0 |  |  |  |  |  |  |  |  |  | 
